Measurements taken from US8410164B2, “Reagent for measurement of active oxygen” (The University of Tokyo, priority 2008, dated 2013).

What was measured:
HL-60 cells [1] = experiment: Intracellular retentivity of reaction products of APF and APC-AM in HL-60 cells by FACS; format: cell-based; settings: 10 μM loaded 60 minutes, 100 μM hydrogen peroxide 15 minutes
Experimental: Intracellular retentivities of the reaction products produced from APF and APC with the reactive oxygen species were compared in a similar manner. APF and APC-AM (10 μM, 1.0% dimethylformamide (cosolvent) for the both) were loaded on the HL-60 cells for 60 minutes by adding them to the medium of the cells, and then the cells were stimulated with 100 μM hydrogen peroxide for 15 minutes. Then, fluorescence intensity was periodically measured (0 minute, 30 minutes, 60 minutes) by FACS. In FIG. 6, the graphs (A) to (C) show the results obtained with APF, and the graphs (D) to (F) show the results obtained with APC-AM. The graphs (A) and (D) show the results obtained immediately after the hydrogen peroxide stimulation, (B) and (E) show the results obtained 30 minutes after the stimulation, and (C) and (F) show the results obtained 60 minutes after the stimulation.

HeLa cells = experiment: Imaging of reactive oxygen species in living HeLa cells after sodium hypochlorite stimulation; format: cell-based; settings: 1.0 μM loaded for 15 minutes, 500 μM sodium hypochlorite
Experimental: Imaging of reactive oxygen species in living cells was performed by using the compound 5 (APC). The compound 6 (APC-AM, 1.0 μM, 0.1% dimethylformamide (cosolvent)), which corresponds to APC esterified to increase cell membrane permeability, was loaded on the HeLa cells for 15 minutes by addition to the medium of the cells, and then the cells were stimulated with 500 μM sodium hypochlorite.

[2] = Fluorescence quantum yield (Φf); format: physicochemical
Experimental: (§1) The compound 5 (APC) is a substantially non-fluorescent (Φf=0.007) substance having a moiety that specifically reacts with reactive oxygen species in the molecule. This substance specifically reacts with reactive oxygen species, and thereby becomes calcein to emit fluorescence. The tetracetoxymethyl ester of this calcein and diacetyl ester of fluorescein were taken up by HL-60 cells, and intracellular retentivity of calcein and fluorescein was evaluated.

HL-60 cells [3] = experiment: Intracellular retentivity of calcein and fluorescein taken up by HL-60 cells as esters; format: cell-based
Experimental: as §1

[4] = pKa comparison of calcein and fluorescein; format: physicochemical

## Nc1ccc(Oc2ccc3c(-c4ccccc4C(=O)O)c4ccc(=O)cc-4oc3c2)cc1 [APF, aminophenylfluorescein]
HL-60 cells [1]; 0 minute
  Fluorescence intensity by FACS immediately after hydrogen peroxide stimulation: increase of fluorescence intensity was observed
HL-60 cells [1]; 30 and 60 minutes
  Fluorescence intensity by FACS 30 and 60 minutes after stimulation (intracellular retentivity of reaction product): detection thereof became difficult after 30 minutes

## CC(=O)OCOC(=O)CN(CC(=O)OCOC(C)=O)Cc1c(O)ccc2c1Oc1c(ccc(Oc3ccc([N+](=O)[O-])cc3)c1CN(CC(=O)OCOC(C)=O)CC(=O)OCOC(C)=O)C21OC(=O)c2ccccc21 (centres unmarked) [APC-AM, 3-Hydroxy-4,5-bis[N,N′-di(carboxymethyl)aminomethyl]-6-(4′-nitro)phenoxyfluorescein tetracetoxymethyl ester]
HeLa cells
  Fluorescence in HeLa cells after sodium hypochlorite stimulation: Extremely intense fluorescence

## O=C(O)CN(CC(=O)O)Cc1cc2c(cc1O)Oc1cc(O)c(CN(CC(=O)O)CC(=O)O)cc1C21OC(=O)c2ccccc21 [calcein]
[2]
  Fluorescence quantum yield Φf: 0.793
HL-60 cells [3]; after 60 minutes, loaded as tetracetoxymethyl ester
  Fluorescence intensity in the HL-60 cells over time (intracellular retentivity): hardly decreased
[4]
  pKa: ~5.4

## O=C1OC2(c3ccc(O)cc3Oc3cc(O)ccc32)c2ccccc21 [fluorescein]
HL-60 cells [3]; after 15 minutes, loaded as diacetyl ester, fraction of the starting intensity
  Fluorescence intensity in the HL-60 cells over time (intracellular retentivity), level remaining: 1/10
[4]
  pKa: 6.4
